Results from article PMC4016869, “In Search of the Active Metabolites of an Anticancer Piperazinedione, TW01003, in Rats” (BioMed Research International, 2014).
Structures can show the parent of a compound that is named as a salt.

Columns and labels:
[1] = Preliminary pharmacokinetic study, oral administration to rats; type: in vivo; conditions: unpublished data
[2] = tested on: vascular endothelial growth factor- (VEGF-) induced angiogenesis; assay: Matrigel with VEGF-induced angiogenesis after oral treatment in mice; type: in vivo; conditions: oral TW01003 3 mg/kg, unpublished data
[3] = Metabolic study of TW01003 in a rat after i.v. administration (plasma, enzymatic treatment, HPLC); type: in vivo
Description: Single-dose TW01003 in a solution (1 mL) containing a 9 : 1 (v/v) ratio of vehicle V : 10% Na2CO3(aq) was used for animal studies in pig or in male Wistar rats. For metabolic studies, the TW01003 test solution was administered intravenously (7 mg/kg, n = 1) to the tail vein or orally (36 mg/kg, n = 1) by a feeding tube. For pharmacokinetic studies, the test solution was administered intravenously to the tail vein of Wistar rats (2.0 mg/kg, 1 mL, n = 6). The rats were put under a heating lamp to maintain body temperatures at 37°C throughout the experiment. All procedures involving the use of animals were approved by the Institutional Animal Care and Use Committee of Taipei Medical University. Blood samples (0.5 mL) were withdrawn from the carotid artery of rats at time intervals of 5, 15, 30, 45, 60, 90, 120, 180, and 240 min. Heparin sodium (25 IU/mL in 0.3 mL of saline) was added, and the blood samples were centrifuged (5,585 g) at 4°C for 8 min. The plasma was frozen immediately and kept at −78°C until analysis. The plasma sample (150 μL) was mixed with a sulfatase solution (200 IU/mL, 50 μL) at 37°C for 2 h. The plasma sample (150 μL) mixed with 50 μL of a buffer solution (pH 5.0) was used for the control group. The internal standard solution was then added, and the solution was centrifuged (5,585 g) for 10 min. The supernatant was concentrated to dryness with nitrogen gas. […]

[4] = tested on: 60 human disease-oriented cancer cell panel; parameters: method as in PMID 23567646; conditions: cited from earlier work
[5] = Pharmacokinetics of TW01003 and TW01003 sulfate after i.v. administration of TW01003 in Wistar rats; type: in vivo, rat; conditions: for Cmax / MRT inf / Vd / clearance / half-life: male, rat, iv; for Cmax / MRT inf / Vd / clearance / half-life / AUMCINF / AUCINF / AUCall: plasma, i.v. TW01003 2.0 mg/kg; for Cmax / MRT inf / Vd / clearance / half-life / AUMCINF: n = 6, mean ± SD; for AUCINF: n = 6, time 0 to infinite; for AUCINF / AUCall: mean ± SD; for AUCall: n = 6, time 0 to last sampling time
Description: Single-dose TW01003 in a solution (1 mL) containing a 9 : 1 (v/v) ratio of vehicle V : 10% Na2CO3(aq) was used for animal studies in pig or in male Wistar rats. For metabolic studies, the TW01003 test solution was administered intravenously (7 mg/kg, n = 1) to the tail vein or orally (36 mg/kg, n = 1) by a feeding tube. For pharmacokinetic studies, the test solution was administered intravenously to the tail vein of Wistar rats (2.0 mg/kg, 1 mL, n = 6). The rats were put under a heating lamp to maintain body temperatures at 37°C throughout the experiment. All procedures involving the use of animals were approved by the Institutional Animal Care and Use Committee of Taipei Medical University.
Blood samples (0.5 mL) were withdrawn from the carotid artery of rats at time intervals of 5, 15, 30, 45, 60, 90, 120, 180, and 240 min. Heparin sodium (25 IU/mL in 0.3 mL of saline) was added, and the blood samples were centrifuged (5,585 g) at 4°C for 8 min. The plasma was frozen immediately and kept at −78°C until analysis. The plasma sample (150 μL) was mixed with a sulfatase solution (200 IU/mL, 50 μL) at 37°C for 2 h. The plasma sample (150 μL) mixed with 50 μL of a buffer solution (pH 5.0) was used for the control group. The internal standard solution was then added, and the solution was centrifuged (5,585 g) for 10 min. The supernatant was concentrated to dryness with nitrogen gas. The D5W vehicle (200 μL) was then added to the residue, and the solution was subjected to HPLC analysis.
We established the plasma concentration-time profile. The area under the plasma concentration-time profile (AUC) and other pharmacokinetic parameters (peak concentration: C max; time to reach C max: T max; area under the moment curve: AUMC; volume of distribution: V D) were calculated using the log-linear trapezoidal rule. […] Terminal half-life (t 1/2) was compartment model-independently estimated. Data analysis was performed using Microsoft Excel, and data were represented as mean ± standard deviation (SD) for n experiments. Treatment differences were evaluated by the paired t-test.

[6] = Identification of TW01003 metabolites in pig urine after i.v. administration (HPLC, sulfatase treatment); type: in vivo; conditions: i.v. TW01003 200 mg, urine 60 min after dosing
From the text: Crossbred 3-4-month-old pigs weighing 40–50 kg, obtained from the Animal Technology Institute, Taiwan (Miaoli, Taiwan), were used in a preliminary metabolic study for establishing the HPLC analytical method for the identification of TW01003 and its metabolites. The phase II conjugate TW01003 sulfate was first isolated from pig urine as an authentic sample for analysis. Male Wistar rats (200–250 g) for pharmacokinetic studies were purchased from the Laboratory Animal Center of National Taiwan University (Taipei, Taiwan). The animals were pathogen free and allowed to acclimate to the environmentally controlled quarters (24 ± 1°C and 12 : 12 h light-dark cycle) for at least 5 days before the experiments. Animal studies were conducted in accordance with the Guide for the Care and Use of Laboratory Animals.
In order to establish a feasible analytical method for the identification of TW01003 metabolites in a biological system, a test solution containing 200 mg of TW01003 was first injected into a 40–50 kg pig. Fresh urine (1 mL) was collected 60 min after dosing, filtered through a 0.22 μm Millipore filter, and subjected to HPLC analysis. Typical HPLC chromatograms of urine sample of untreated pig (Figure 2(a)), urine samples upon i.v. dosing of TW01003 (Figure 2(b)), and urine samples after sulfatase treatment (Figure 2(c)) are depicted.

| oral fraction absorbed [1] | clearance in words ([3]; rat, i.v. 6.7 mg/kg or oral 36.0 mg/kg, regardless of administration method) | Cmax [5] | MRT inf [5] | Vd [5] | clearance [5] | half-life [5] | AUMCINF [5] | AUCINF [5] | AUCall [5] | metabolite found in pig urine [6] | metabolite in rat plasma after i.v. administration ([3]; Wistar rat, i.v. TW01003 6.7 mg/kg, n = 1) | clearance rate relative to TW01003 ([5]; i.v. TW01003, n = 6) | residence time (MRTINF) relative to TW01003 ([5]; i.v. TW01003, n = 6) | systemic exposure (AUCINF) relative to TW01003 ([5]; i.v. TW01003, n = 6) | volume of distribution relative to TW01003 ([5]; i.v. TW01003, n = 6) | Structure (SMILES) | hemoglobin count of the matrigel reduced to [2] | antitumor activity in words [4] |
| --- | --- | --- | --- | --- | --- | --- | --- | --- | --- | --- | --- | --- | --- | --- | --- | --- | --- | --- |
| 1.72% | cleared fairly rapidly | 2200 ± 250 ng/mL | 0.2 ± 0.06 h | 1.41 ± 0.41 L/kg | 118 mL/min/kg | 0.76 ± 0.14 h | 0.06 ± 0.02 h∗h∗μg/mL | 0.29 ± 0.04 h∗μg/mL | 0.28 ± 0.04 h∗μg/mL | – | – | – | – | – | – | O=c1[nH]/c(=C/c2ccc(O)cn2)c(=O)[nH]/c1=C/c1ccccc1 [TW01003, (3E,6E)-3-Benzylidene-6-[(5-hydroxypyridin-2-yl)methylene]piperazine-2,5-dione] | < 1% | broad spectrum of antitumor activities |
| – | – | 1310 ± 640 ng/mL | 1.44 ± 0.33 h | 4.43 ± 1.52 L/kg | 51.3 mL/min/kg | 1.31 ± 0.22 h | 1.01 ± 0.36 h∗h∗μg/mL | 0.71 ± 0.25 h∗μg/mL | 0.52 ± 0.20 h∗μg/mL | major metabolite | major metabolite | 2.3 times lower | seven times longer | 2.5 times higher | three times higher | O=c1[nH]/c(=C\c2ccc(OS(=O)(=O)O)cn2)c(=O)[nH]/c1=C\c1ccccc1 [TW01003 sulfate] | – | – |
